The values below come from patent US10344060B2 (priority 2013, dated 2019).

Usually IC50 stands for the point on the concentration scale where inhibition reaches its midpoint.

Where two headings read alike, the source gives them in different places.

What all share (experiment): cell-based
The target of one assay is hNav1.7 (Homo sapiens, UniProt Q15858). It is filed as cell-based. The settings on record: read-out: PX hNav1.7 Tonic IC50.
For another assay, the target named is hNav1.4 (Homo sapiens, UniProt P35499). The assay is classed as cell-based. The settings on record: for IC50: read-out: PX hNav1.4 Tonic IC50; for Nav1.4/Nav1.7: ratio of PX tonic IC50 values.
Sequence of hNav1.4 (P35499 whole entry): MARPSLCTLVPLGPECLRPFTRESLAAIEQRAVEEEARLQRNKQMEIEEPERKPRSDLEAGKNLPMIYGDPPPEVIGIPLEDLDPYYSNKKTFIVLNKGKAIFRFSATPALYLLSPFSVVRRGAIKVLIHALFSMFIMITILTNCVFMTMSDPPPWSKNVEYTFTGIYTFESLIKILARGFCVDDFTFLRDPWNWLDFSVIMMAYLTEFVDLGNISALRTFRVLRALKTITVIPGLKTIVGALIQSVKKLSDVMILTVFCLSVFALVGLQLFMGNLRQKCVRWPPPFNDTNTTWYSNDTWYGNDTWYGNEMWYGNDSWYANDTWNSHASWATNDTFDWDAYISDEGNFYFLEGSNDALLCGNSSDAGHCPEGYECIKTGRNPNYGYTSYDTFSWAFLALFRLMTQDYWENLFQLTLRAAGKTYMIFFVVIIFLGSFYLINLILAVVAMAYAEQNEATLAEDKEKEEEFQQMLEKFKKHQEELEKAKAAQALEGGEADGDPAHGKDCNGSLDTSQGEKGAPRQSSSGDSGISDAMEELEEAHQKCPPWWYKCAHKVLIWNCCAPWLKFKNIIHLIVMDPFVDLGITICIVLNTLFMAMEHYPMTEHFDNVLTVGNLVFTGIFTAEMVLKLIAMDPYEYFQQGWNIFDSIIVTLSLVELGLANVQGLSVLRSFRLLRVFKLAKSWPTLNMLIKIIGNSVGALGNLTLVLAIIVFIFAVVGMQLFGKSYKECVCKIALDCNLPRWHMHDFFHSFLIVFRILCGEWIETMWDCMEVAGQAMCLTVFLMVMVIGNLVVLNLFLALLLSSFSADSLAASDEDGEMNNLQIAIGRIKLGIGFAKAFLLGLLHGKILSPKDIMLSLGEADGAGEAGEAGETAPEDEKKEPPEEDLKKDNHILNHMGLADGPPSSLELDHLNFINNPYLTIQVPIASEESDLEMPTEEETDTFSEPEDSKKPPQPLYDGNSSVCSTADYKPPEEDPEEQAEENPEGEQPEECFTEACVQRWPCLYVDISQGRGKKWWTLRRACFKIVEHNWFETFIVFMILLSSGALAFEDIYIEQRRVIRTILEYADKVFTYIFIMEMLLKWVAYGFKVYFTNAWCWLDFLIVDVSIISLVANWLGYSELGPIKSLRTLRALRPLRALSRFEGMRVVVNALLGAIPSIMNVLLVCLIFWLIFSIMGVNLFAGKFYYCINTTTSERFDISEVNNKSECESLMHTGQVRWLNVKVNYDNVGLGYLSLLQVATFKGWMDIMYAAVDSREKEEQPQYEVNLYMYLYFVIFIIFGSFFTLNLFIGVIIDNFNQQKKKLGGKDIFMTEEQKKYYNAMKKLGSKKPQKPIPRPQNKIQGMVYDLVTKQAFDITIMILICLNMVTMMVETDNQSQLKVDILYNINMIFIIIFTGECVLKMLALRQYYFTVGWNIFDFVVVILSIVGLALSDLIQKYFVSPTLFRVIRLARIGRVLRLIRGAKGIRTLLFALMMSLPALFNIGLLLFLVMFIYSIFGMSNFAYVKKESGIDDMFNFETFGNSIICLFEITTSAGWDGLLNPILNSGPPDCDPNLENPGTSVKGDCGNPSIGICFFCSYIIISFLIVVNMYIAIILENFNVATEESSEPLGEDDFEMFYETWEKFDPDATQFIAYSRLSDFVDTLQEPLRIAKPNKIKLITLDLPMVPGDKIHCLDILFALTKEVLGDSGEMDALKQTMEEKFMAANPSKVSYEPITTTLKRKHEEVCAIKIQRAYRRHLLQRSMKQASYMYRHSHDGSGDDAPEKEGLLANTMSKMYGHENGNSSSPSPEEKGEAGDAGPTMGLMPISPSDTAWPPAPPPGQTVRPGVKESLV
In the next assay the target is hNav1.5 (Homo sapiens, UniProt Q14524). The settings on record: for IC50: read-out: PX hNav1.5 Tonic IC50; for Nav1.5/Nav1.7: ratio of PX tonic IC50 values.
Where [1] appears, read: Table 12, PatchXpress, tonic block.

Sequence of hNav1.7 (Q15858 whole entry): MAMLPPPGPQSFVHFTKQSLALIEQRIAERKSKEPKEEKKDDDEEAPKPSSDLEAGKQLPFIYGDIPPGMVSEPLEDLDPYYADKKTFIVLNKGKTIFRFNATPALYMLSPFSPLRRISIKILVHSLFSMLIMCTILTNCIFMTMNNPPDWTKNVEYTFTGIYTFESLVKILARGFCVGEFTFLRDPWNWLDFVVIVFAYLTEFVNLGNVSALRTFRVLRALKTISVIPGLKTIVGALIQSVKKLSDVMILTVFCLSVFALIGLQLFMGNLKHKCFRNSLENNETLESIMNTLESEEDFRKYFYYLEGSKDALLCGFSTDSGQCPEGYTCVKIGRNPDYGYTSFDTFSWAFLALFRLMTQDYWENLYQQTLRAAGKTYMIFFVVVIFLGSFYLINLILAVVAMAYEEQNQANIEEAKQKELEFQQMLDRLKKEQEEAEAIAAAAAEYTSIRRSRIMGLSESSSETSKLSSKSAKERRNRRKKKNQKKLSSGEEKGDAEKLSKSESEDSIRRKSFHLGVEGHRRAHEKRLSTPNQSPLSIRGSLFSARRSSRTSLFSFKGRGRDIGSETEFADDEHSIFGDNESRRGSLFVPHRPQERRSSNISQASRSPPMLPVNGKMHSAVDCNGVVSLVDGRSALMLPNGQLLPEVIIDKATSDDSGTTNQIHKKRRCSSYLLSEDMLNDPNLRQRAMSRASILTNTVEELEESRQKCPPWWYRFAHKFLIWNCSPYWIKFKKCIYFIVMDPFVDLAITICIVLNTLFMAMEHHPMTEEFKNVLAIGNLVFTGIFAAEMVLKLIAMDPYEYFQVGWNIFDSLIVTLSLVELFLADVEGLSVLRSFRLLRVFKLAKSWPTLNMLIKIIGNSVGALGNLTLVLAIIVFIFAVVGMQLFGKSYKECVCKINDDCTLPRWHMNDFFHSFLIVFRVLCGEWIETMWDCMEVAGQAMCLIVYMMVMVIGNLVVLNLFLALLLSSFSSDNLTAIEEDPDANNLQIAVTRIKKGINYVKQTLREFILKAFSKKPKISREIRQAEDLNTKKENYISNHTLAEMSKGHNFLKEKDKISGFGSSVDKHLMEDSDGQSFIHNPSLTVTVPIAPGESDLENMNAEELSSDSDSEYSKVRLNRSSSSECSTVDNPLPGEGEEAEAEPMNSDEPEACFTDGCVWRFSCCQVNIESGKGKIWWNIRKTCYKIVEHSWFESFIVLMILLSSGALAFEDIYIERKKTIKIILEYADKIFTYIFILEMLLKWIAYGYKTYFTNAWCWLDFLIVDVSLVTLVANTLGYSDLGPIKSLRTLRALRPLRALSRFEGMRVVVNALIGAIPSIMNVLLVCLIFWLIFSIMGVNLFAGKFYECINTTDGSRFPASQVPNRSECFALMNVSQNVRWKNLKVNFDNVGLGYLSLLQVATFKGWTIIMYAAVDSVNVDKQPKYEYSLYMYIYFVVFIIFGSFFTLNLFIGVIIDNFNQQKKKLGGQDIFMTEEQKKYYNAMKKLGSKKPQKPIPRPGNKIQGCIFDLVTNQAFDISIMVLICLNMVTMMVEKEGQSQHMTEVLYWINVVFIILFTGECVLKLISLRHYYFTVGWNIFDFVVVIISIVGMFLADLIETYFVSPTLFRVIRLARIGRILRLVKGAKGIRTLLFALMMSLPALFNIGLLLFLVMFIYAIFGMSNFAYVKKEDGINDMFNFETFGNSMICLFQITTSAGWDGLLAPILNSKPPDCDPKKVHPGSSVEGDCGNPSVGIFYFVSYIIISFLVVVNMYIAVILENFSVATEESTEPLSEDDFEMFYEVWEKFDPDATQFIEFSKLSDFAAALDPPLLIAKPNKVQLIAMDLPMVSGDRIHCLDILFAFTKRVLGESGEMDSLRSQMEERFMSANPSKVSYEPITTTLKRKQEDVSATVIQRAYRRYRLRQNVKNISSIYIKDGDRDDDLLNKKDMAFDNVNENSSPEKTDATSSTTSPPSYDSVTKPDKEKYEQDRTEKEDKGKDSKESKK

Turning to `C#CC[C@H](N)C(=O)N[C@@H](Cc1ccc(O)cc1)C(=O)N[C@H]1CSSC[C@@H]2NC(=O)[C@@H]3CSSC[C@@H](C(=O)N[C@@H](CCCNC(=N)N)C(=O)N[C@@H](CCCCN)C(=O)N[C@@H](CCC(N)=O)C(=O)N[C@H](C(N)=O)[C@@H](C)CC)NC(=O)[C@H](Cc4c[nH]c5ccccc45)NC(=O)[C@H](CC(C)C)NC(=O)[C@H](CCCCN)NC(=O)[C@H](CSSC[C@H](NC(=O)[C@H]([C@@H](C)O)NC(=O)[C@H](Cc4c[nH]c5ccccc45)NC(=O)[C@H](CCCC)NC(=O)[C@H](Cc4c[nH]c5ccccc45)NC(=O)[C@H](CCCCN)NC(=O)[C@H](CCC(N)=O)NC1=O)C(=O)N[C@@H](CC(=O)O)C(=O)N[C@@H](CO)C(=O)N[C@@H](CCCCN)C(=O)N[C@@H](CCCNC(=N)N)C(=O)N[C@@H](C)C(=O)N3)NC(=O)[C@H](CCCNC(=N)N)NC(=O)[C@H](CC(C)C)NC(=O)CNC(=O)[C@H](CCC(=O)O)NC2=O` [compound 665], the IC50 on hNav1.7 (setting [1]) turned out to be 0.912 nM; at hNav1.4 (setting [1]), 10.7 nM; on hNav1.5 (setting [1]), 3220 nM. On hNav1.4 (Table 12), the Nav1.4/Nav1.7 amounted to 12. In addition, the Nav1.5/Nav1.7 at hNav1.5 (Table 12) is 3529.

Regarding `C#CC[C@H](N)C(=O)NCCOCCOCCOCCOCCC(=O)NCCCC[C@@H]1NC(=O)[C@H](CCCNC(=N)N)NC(=O)[C@H](CCCCN)NC(=O)[C@H](CO)NC(=O)[C@H](CC(=O)O)NC(=O)[C@@H]2CSSC[C@@H]3NC(=O)[C@H](CCCNC(=N)N)NC(=O)[C@H](CC(C)C)NC(=O)CNC(=O)[C@H](CCC(=O)O)NC(=O)[C@H](CSSC[C@H](NC(=O)[C@H](Cc4ccc(O)cc4)NC(=O)[C@@H](N)CC#N)C(=O)N[C@@H](CCC(N)=O)C(=O)N[C@@H](CCCCN)C(=O)N[C@@H](Cc4c[nH]c5ccccc45)C(=O)N[C@@H](CCCC)C(=O)N[C@@H](Cc4c[nH]c5ccccc45)C(=O)N[C@@H]([C@@H](C)O)C(=O)N2)NC(=O)[C@H](CSSC[C@@H](C(=O)N[C@@H](CCCNC(=N)N)C(=O)N[C@@H](CCCCN)C(=O)N[C@H](C(=O)N[C@H](C(N)=O)[C@@H](C)CC)[C@@H](C)CC)NC(=O)[C@H](Cc2c[nH]c4ccccc24)NC(=O)[C@H](CC(C)C)NC(=O)[C@H](CCCCN)NC3=O)NC1=O` [compound 380], the IC50 on hNav1.7 (setting [1]) is 0.845 nM. Also, on hNav1.4 (Table 12), the Nav1.4/Nav1.7 is 0. Besides, the Nav1.5/Nav1.7 at hNav1.5 (Table 12) is on record as 0.

Consider `C#CC[C@H](N)C(=O)N[C@@H](Cc1ccc(O)cc1)C(=O)N[C@H]1CSSC[C@@H]2NC(=O)[C@@H]3CSSC[C@@H](C(=O)N[C@@H](CCCNC(=N)N)C(=O)N[C@@H](CCCCN)C(=O)N[C@H](C(=O)N[C@@H](Cc4c[nH]c5ccccc45)C(N)=O)[C@@H](C)CC)NC(=O)[C@H](Cc4c[nH]c5ccccc45)NC(=O)[C@H](CC(C)C)NC(=O)[C@H](CCCCN)NC(=O)[C@H](CSSC[C@H](NC(=O)[C@H]([C@@H](C)O)NC(=O)[C@H](Cc4c[nH]c5ccccc45)NC(=O)[C@H](CCCC)NC(=O)[C@H](Cc4c[nH]c5ccccc45)NC(=O)[C@H](CCCCN)NC(=O)[C@H](CCC(N)=O)NC1=O)C(=O)N[C@@H](CC(=O)O)C(=O)N[C@@H](CO)C(=O)N[C@@H](CCCCN)C(=O)N[C@@H](CCCNC(=N)N)C(=O)N[C@@H](C)C(=O)N3)NC(=O)[C@H](CCCNC(=N)N)NC(=O)[C@H](CC(C)C)NC(=O)CNC(=O)[C@H](CCC(=O)O)NC2=O` [compound 296], for which the IC50 was found to be 4.79 nM on hNav1.7 (setting [1]), 37 nM at hNav1.4 (setting [1]) and 2290 nM on hNav1.5 (setting [1]). Also, on hNav1.4 (Table 12), the Nav1.4/Nav1.7 is given as 8. Moreover, at hNav1.5 (Table 12), the Nav1.5/Nav1.7 amounted to 479.

Regarding `CCC[C@H](N)C(=O)N[C@@H](Cc1ccc(O)cc1)C(=O)N[C@H]1CSSC[C@@H]2NC(=O)[C@@H]3CSSC[C@@H](C(=O)N[C@@H](CCCNC(=N)N)C(=O)N[C@@H](CCCCN)C(=O)N[C@H](C(=O)N[C@H](C(N)=O)[C@@H](C)CC)[C@@H](C)CC)NC(=O)[C@H](Cc4c[nH]c5ccccc45)NC(=O)[C@H](CC(C)C)NC(=O)[C@H](CCCCN)NC(=O)[C@H](CSSC[C@H](NC(=O)[C@H]([C@@H](C)O)NC(=O)[C@H](Cc4c[nH]c5ccccc45)NC(=O)[C@H](CC(C)C)NC(=O)[C@H](Cc4c[nH]c5ccccc45)NC(=O)[C@H](CCCCN)NC(=O)[C@H](CCC(N)=O)NC1=O)C(=O)N[C@@H](CC(=O)O)C(=O)N[C@@H](CO)C(=O)N[C@@H](CCCCN)C(=O)N[C@@H](CCCNC(=N)N)C(=O)N[C@@H](CCCCNC(=O)[C@@H](N)Cc1cn(CCOCCOCCOCCOCCOCCOCCOCCOCCOCCOCCN)nn1)C(=O)N3)NC(=O)[C@H](CCCNC(=N)N)NC(=O)[C@H](CC(C)C)NC(=O)CNC(=O)[C@H](CCC(=O)O)NC2=O` [compound 446], the IC50 at hNav1.7 stood at 11.6 nM; on hNav1.4, 128 nM; at hNav1.5, 2410 nM. Moreover, on hNav1.4 (Table 13), the Nav1.4/Nav1.7 worked out at 11. In addition, at hNav1.5 (Table 13), the Nav1.5/Nav1.7 is reported as 207.

In the case of `C#CC[C@H](N)C(=O)NCCOCCOCCOCCOCCOCCOCCOCCOCCOCCOCCOCCOCCC(=O)NCCCC[C@@H]1NC(=O)[C@@H]2CSSC[C@H](NC(=O)[C@@H](N)Cc3ccc(O)cc3)C(=O)N[C@@H](CCC(N)=O)C(=O)N[C@@H](CCCCN)C(=O)N[C@@H](Cc3c[nH]c4ccccc34)C(=O)N[C@@H](CCCC)C(=O)N[C@@H](Cc3c[nH]c4ccccc34)C(=O)N[C@@H]([C@@H](C)O)C(=O)N[C@H]3CSSC[C@H](NC(=O)[C@H](CCC(=O)O)NC(=O)[C@H](CC(C)C)NC(=O)CNC1=O)C(=O)N[C@@H](CCCCN)C(=O)N[C@@H](CC(C)C)C(=O)N[C@@H](Cc1c[nH]c4ccccc14)C(=O)N[C@H](C(=O)N[C@@H](CCCNC(=N)N)C(=O)N[C@@H](CCCCN)C(=O)N[C@H](C(=O)N[C@@H](Cc1c[nH]c4ccccc14)C(N)=O)[C@@H](C)CC)CSSC[C@H](NC(=O)[C@H](C)NC(=O)[C@H](CCCNC(=N)N)NC(=O)[C@H](CCCCN)NC(=O)[C@H](CO)NC(=O)[C@H](CC(=O)O)NC3=O)C(=O)N2` [compound 292], the Nav1.4/Nav1.7 on hNav1.4 (Table 12) came to 2. For the same molecule, at hNav1.5 (Table 12), the Nav1.5/Nav1.7 came out at 3.

Turning to `CCCC[C@@H]1NC(=O)[C@H](Cc2c[nH]c3ccccc23)NC(=O)[C@H](CCCCN)NC(=O)[C@H](CCC(N)=O)NC(=O)[C@@H](NC(=O)[C@@H](N)Cc2ccc(O)cc2)CSSC[C@@H]2NC(=O)[C@@H]3CSSC[C@@H](C(=O)N[C@@H](CCCNC(=N)N)C(=O)N[C@@H](CCCCN)C(=O)N[C@H](C(=O)N[C@@H](Cc4c[nH]c5ccccc45)C(N)=O)[C@@H](C)CC)NC(=O)[C@H](Cc4c[nH]c5ccccc45)NC(=O)[C@H](CC(C)C)NC(=O)[C@H](CCCCN)NC(=O)[C@H](CSSC[C@H](NC(=O)[C@H]([C@@H](C)O)NC(=O)[C@H](Cc4c[nH]c5ccccc45)NC1=O)C(=O)N[C@@H](CC(=O)O)C(=O)N[C@@H](CO)C(=O)N[C@@H](CCCCN)C(=O)N[C@@H](CCCNC(=N)N)C(=O)N[C@@H](CCCCN=[N+]=[N-])C(=O)N3)NC(=O)[C@H](CCC(=O)O)NC(=O)[C@H](CC(C)C)NC(=O)CNC(=O)[C@H](CCC(=O)O)NC2=O` [compound 306], the Nav1.4/Nav1.7 at hNav1.4 (Table 12) worked out at 550. Further, at hNav1.5 (Table 12), the Nav1.5/Nav1.7 was found to be 1712.

As for `C#CC[C@H](N)C(=O)N[C@@H](Cc1ccc(O)cc1)C(=O)N[C@H]1CSSC[C@@H]2NC(=O)[C@@H]3CSSC[C@@H](C(=O)N[C@@H](CCCNC(=N)N)C(=O)N[C@@H](CCCCN)C(=O)N[C@H](C(=O)N[C@@H](Cc4c[nH]c5ccccc45)C(N)=O)[C@@H](C)CC)NC(=O)[C@H](Cc4c[nH]c5ccccc45)NC(=O)[C@H](CC(C)C)NC(=O)[C@H](CCCCN)NC(=O)[C@H](CSSC[C@H](NC(=O)[C@H]([C@@H](C)O)NC(=O)[C@H](Cc4c[nH]c5ccccc45)NC(=O)[C@H](CCC)NC(=O)[C@H](Cc4c[nH]c5ccccc45)NC(=O)[C@H](CCCCN)NC(=O)[C@H](CCC(N)=O)NC1=O)C(=O)N[C@@H](CC(=O)O)C(=O)N[C@@H](CO)C(=O)N[C@@H](CCCCN)C(=O)N[C@@H](CCCNC(=N)N)C(=O)N[C@@H](C)C(=O)N3)NC(=O)[C@H](CCC(=O)O)NC(=O)[C@H](CC(C)C)NC(=O)CNC(=O)[C@H](CCC(=O)O)NC2=O` [compound 300], the Nav1.4/Nav1.7 on hNav1.4 (Table 12) was 1183. Moreover, the Nav1.5/Nav1.7 on hNav1.5 (Table 12) is 6483.

`C#CC[C@H](N)C(=O)NCCOCCOCCOCCOCCC(=O)NCCCC[C@@H]1NC(=O)[C@@H]2CSSC[C@H](NC(=O)[C@H](Cc3ccc(O)cc3)NC(=O)[C@@H](N)CC#N)C(=O)N[C@@H](CCC(N)=O)C(=O)N[C@@H](CCCCN)C(=O)N[C@@H](Cc3c[nH]c4ccccc34)C(=O)N[C@@H](CCCC)C(=O)N[C@@H](Cc3c[nH]c4ccccc34)C(=O)N[C@@H]([C@@H](C)O)C(=O)N[C@H]3CSSC[C@H](NC(=O)[C@H](CCCNC(=N)N)NC(=O)[C@H](CC(C)C)NC(=O)CNC1=O)C(=O)N[C@@H](CCCCN)C(=O)N[C@@H](CC(C)C)C(=O)N[C@@H](Cc1c[nH]c4ccccc14)C(=O)N[C@H](C(=O)N[C@@H](CCCNC(=N)N)C(=O)N[C@@H](CCCCN)C(=O)N[C@H](C(=O)N[C@H](C(N)=O)[C@@H](C)CC)[C@@H](C)CC)CSSC[C@H](NC(=O)[C@H](C)NC(=O)[C@H](CCCNC(=N)N)NC(=O)[C@H](CCCCN)NC(=O)[C@H](CO)NC(=O)[C@H](CC(=O)O)NC3=O)C(=O)N2` [compound 385]: the Nav1.4/Nav1.7 on hNav1.4 (Table 12) is recorded as 0. Further, at hNav1.5 (Table 12), the Nav1.5/Nav1.7 is reported as 0.
